According to PubChem BioAssay AID2060606 (Molecular Pharmacology Branch, DTP, NCI, 2025):

Tested on: 922993-354-T-J3-PDC complex spheroids, viability, % test/control
Experiment: Anticancer human tumor 922993-354-T-J3-PDC patient-derived endometrial carcinoma cell line growth inhibition [CLK]
Settings: for IC50: curve of first compound; for viability, T/C: stronger effect = lower value; active = viability on the fitted dose curve at most 10% of control; inactive = the rest
How it was run: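 Multi-cell-type spheroids combined patient-derived tumor cells with HUVEC endothelial cells and human mesenchymal stem cells. Paired agents were dosed in half-log steps down from about clinical Cmax, or from 10 microM where Cmax was unknown.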

[1] = second compound 0.0316 µM, first compound 0.0316 µM
[2] = second compound 0.0316 µM, first compound 0.1 µM
[3] = second compound 0.0316 µM, first compound 0.316 µM
[4] = second compound 0.0316 µM, first compound 1 µM
[5] = second compound 0.0316 µM, first compound 3.16 µM
[6] = second compound 0.0316 µM, first compound 10 µM
[7] = second compound 0.1 µM, first compound 0.0316 µM
[8] = second compound 0.1 µM, first compound 0.1 µM
[9] = second compound 0.1 µM, first compound 0.316 µM
[10] = second compound 0.1 µM, first compound 1 µM
[11] = second compound 0.1 µM, first compound 3.16 µM
[12] = second compound 0.1 µM, first compound 10 µM
[13] = second compound 0.316 µM, first compound 0.0316 µM
[14] = second compound 0.316 µM, first compound 0.1 µM
[15] = second compound 0.316 µM, first compound 0.316 µM
[16] = second compound 0.316 µM, first compound 1 µM
[17] = second compound 0.316 µM, first compound 3.16 µM
[18] = second compound 0.316 µM, first compound 10 µM
[19] = second compound 1 µM, first compound 0.0316 µM
[20] = second compound 1 µM, first compound 0.1 µM
[21] = second compound 1 µM, first compound 0.316 µM
[22] = second compound 1 µM, first compound 1 µM
[23] = second compound 1 µM, first compound 3.16 µM
[24] = second compound 1 µM, first compound 10 µM
[25] = second compound 3.16 µM, first compound 0.0316 µM
[26] = second compound 3.16 µM, first compound 0.1 µM
[27] = second compound 3.16 µM, first compound 0.316 µM
[28] = second compound 3.16 µM, first compound 1 µM
[29] = second compound 3.16 µM, first compound 3.16 µM
[30] = second compound 3.16 µM, first compound 10 µM
[31] = second compound 10 µM, first compound 0.0316 µM
[32] = second compound 10 µM, first compound 0.1 µM
[33] = second compound 10 µM, first compound 0.316 µM
[34] = second compound 10 µM, first compound 1 µM
[35] = second compound 10 µM, first compound 3.16 µM
[36] = second compound 10 µM, first compound 10 µM
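Also: spheroids exposed to the agents for 7 days before readout.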

COc1ccc([C@@H](O)c2cc(-c3ncnc4cc(N5CCOCC5)ccc34)c(F)cc2Cl)nn1 + CNC(=O)c1ccc(Nc2nc(OC3CCCC3)c3c(-c4ccc5nc(C)oc5c4)c[nH]c3n2)c(OC)c1
inactive: viability, T/C [1] 113% | viability, T/C [2] 112% | viability, T/C [3] 130% | viability, T/C [4] 121% | viability, T/C [5] 113% | viability, T/C [6] 91.2% | viability, T/C [7] 104% | viability, T/C [8] 110% | viability, T/C [9] 99.7% | viability, T/C [10] 125% | viability, T/C [11] 104% | viability, T/C [12] 92.5% | viability, T/C [13] 64.3% | viability, T/C [14] 64.5% | viability, T/C [15] 66.6% | viability, T/C [16] 67.8% | viability, T/C [17] 87.1% | viability, T/C [18] 71.9% | viability, T/C [19] 39.3% | viability, T/C [20] 40.6% | viability, T/C [21] 40% | viability, T/C [22] 40.9% | viability, T/C [23] 52.1% | viability, T/C [24] 56.8% | viability, T/C [25] 31.8% | viability, T/C [26] 28.8% | viability, T/C [27] 34.8% | viability, T/C [28] 41.2% | viability, T/C [29] 45.8% | viability, T/C [30] 41% | viability, T/C [31] 34% | viability, T/C [32] 30.6% | viability, T/C [33] 41.6% | viability, T/C [34] 33.8% | viability, T/C [35] 44.2% | viability, T/C [36] 37.1%
< 31.6 nM: IC50 (second compound 1 µM) | IC50 (second compound 3.16 µM) | IC50 (second compound 10 µM)
> 10000 nM: IC50 (second compound 0.0316 µM) | IC50 (second compound 0.1 µM) | IC50 (second compound 0.316 µM)

COc1cccc2c1C(=O)c1c(O)c3c(c(O)c1C2=O)CC(O)(C(=O)CO)CC3OC1CC(N)C(O)C(C)O1 (centres undefined) + CNC(=O)c1ccc(Nc2nc(OC3CCCC3)c3c(-c4ccc5nc(C)oc5c4)c[nH]c3n2)c(OC)c1
1890 nM: IC50 (second compound 0.316 µM)
< 31.6 nM: IC50 (second compound 1 µM) | IC50 (second compound 3.16 µM) | IC50 (second compound 10 µM)
inactive: viability, T/C [1] 101% | viability, T/C [2] 116% | viability, T/C [3] 102% | viability, T/C [4] 78% | viability, T/C [5] 52.3% | viability, T/C [6] 22.1% | viability, T/C [7] 122% | viability, T/C [8] 123% | viability, T/C [9] 108% | viability, T/C [10] 85.7% | viability, T/C [11] 57% | viability, T/C [12] 18.7% | viability, T/C [13] 77% | viability, T/C [14] 63% | viability, T/C [15] 66.6% | viability, T/C [16] 71.3% | viability, T/C [17] 34.3% | viability, T/C [18] 17.5% | viability, T/C [19] 43.1% | viability, T/C [20] 44.3% | viability, T/C [21] 22.2% | viability, T/C [22] 23.5% | viability, T/C [23] 25.9% | viability, T/C [25] 36.8% | viability, T/C [26] 21.1% | viability, T/C [27] 18.2% | viability, T/C [28] 21.7% | viability, T/C [31] 27.5% | viability, T/C [32] 12.8% | viability, T/C [33] 16.8% | viability, T/C [34] 24.5%
3770 nM: IC50 (second compound 0.1 µM)
3130 nM: IC50 (second compound 0.0316 µM)
active: viability, T/C [24] 3.3% | viability, T/C [29] 10.2% | viability, T/C [30] 0.97% | viability, T/C [35] 3.31% | viability, T/C [36] 1.92%
